These results are taken from paper PMC10051705, “Leishmanicidal Activity of Guanidine Derivatives against Leishmania infantum” (Tropical Medicine and Infectious Disease, 2023).

Usually IC50 stands for the midpoint of a concentration-inhibition curve. For orientation: CC50 means the concentration that lowers cell viability or growth by half. Read a high CC50 as lower toxicity to the cells.

Marks after values point to notes of the source that are not given here.

In data set [1] the test system is L. infantum promastigotes. The data set is described as follows: promastigote growth inhibition assay (MTT). The class given is cell-based. The following applies: Leishmania infantum, 72 h, 26 °C. Here is the method:
The promastigote forms of Leishmania (Leishmania) infantum [IOC/L0579(MHOM/BR/1974/PP75)] were cultured in Schneider’s medium, pH 7.0, supplemented with 20% heat-inactivated fetal bovine serum (FBS), 2% male human urine, 100 U/mL of penicillin, and 100 mg/L of streptomycin, and the parasites were maintained at 26 °C. The procedure to obtain the extracellular axenic amastigote form of L. infantum was based on methods previously described that were modified using a Schneider medium readjusted to pH 5.5 at 37 °C. The culture of promastigote forms in the stationary phase was centrifuged, and the medium of these cells was replaced and differentiated into axenic amastigotes by temperature and medium pH changes. Parasites were maintained in culture for no more than 20 passages.
The promastigote growth inhibition assay was performed as previously described. Promastigotes were harvested during the exponential growth phase. They were incubated in the presence and absence of several concentrations of LQOFG-2, LQOFG-6, LQOFG-7 (500 to 7.8 µM), and AmB (10 to 0.078 µM) as the positive control. The plate was incubated at 26 °C for 72 h in a biological oxygen demand (B.O.D.) incubator using a Schneider’s medium (Schneider’s Insect Medium 24.5 g/L; L-glutamine 1.8 g/L; glucose 2 g/L and sodium bicarbonate 0.4 g/L; Sigma-Aldrich—St. Louis—USA) supplemented. The growth inhibition was evaluated using an MTT assay kit (Amresco, Solon, OH, USA) according to the manufacturer’s protocol. After 4 h of incubation, 10% sodium dodecyl sulfate was added to dissolve the formazan crystals. The absorbance (540 nm) was measured using a plate reader (Biosystems model ELx800; Curitiba, PR, Brazil). […] Three independent experiments we performed in triplicate.

Data set [2] deals with L. infantum axenic amastigotes. The data set is described as follows: apoptosis/necrosis profiling, annexin V/PI staining, axenic amastigotes. Format: cell-based, Leishmania infantum. Here is the method: To evaluate both apoptosis and necrosis, promastigote forms of L. infantum in the log phase of growth were incubated at several concentrations based on the IC50 values of LQOFG-2 (6.35; 12.7, 25.4, and 50.8 µM) LQOFG-6 (12.2, 24.4, 48.8 and 97.6 µM), and LQOFG-7 (11.65, 23.3, 46.6 and 93.2 µM), and AmB (1.5 and 6 µM) was used as the positive control. The plates were incubated for 24 h at 26 °C ± 1 °C in a B.O.D. incubator. After incubation, the promastigotes were washed three times in cold PBS, resuspended in binding buffer (10-mM HEPES, 140-mM NaCl, and 2.5-mM CaCl2, pH 7.4), and stained using a FITC Annexin V/Dead Cell Apoptosis Kit (BD Biosciences, San Jose, CA, USA) according to the manufacturer’s instructions. The stained cells were diluted and suspended in an Annexin V binding buffer (BD Biosciences, San Jose, CA, USA). Annexin V-FITC/propidium iodide (PI)-stained cells were analyzed using a BD FACSCanto II flow cytometer (BD Biosciences, San Jose, CA, USA). The raw data were analyzed using FlowJo 10.0.7 software (TreeStar Inc., Ashland, OR, USA).
To evaluate both apoptosis and necrosis of the amastigote-like forms of L. infantum, the protocol was followed. In each well, amastigotes were treated with the guanidine compounds and controls.

A short description of data set [3]: in vitro cytotoxicity in PBMC (MTT). The note with it: both sexes, human, peripheral blood mononuclear cells (PBMCs), human PBMC, 24 h, MTT. Format: cell-based, human. The method, then:
In vitro cytotoxicity was evaluated using peripheral blood mononuclear cells (PBMCs) collected from three healthy volunteers (2 males, mean age 33; and 1 person). PBMCs were separated by density gradient using Ficoll Paque PLUS (GE Healthcare, USA), pelleted by centrifugation (400× g for 40 min), and resuspended in RPMI 1640 medium, then supplemented with 10% fetal bovine serum and 1% antibiotic solution (penicillin 5000 Units/mL + streptomycin 5000 μg/mL). After 24 h of treatment, cell viability was evaluated by the modified colorimetric method based on the tetrazolium dye MTT (3-(4,5-dimethylthiazol-2-yl)-2,5- diphenyltetrazolium bromide). The MTT assay was used for in vitro cytotoxicity as previously described with the following modifications: cells were exposed to serially diluted concentrations of LQOFG-2, LQOFG-6, LQOFG-7 (1000 to 7.8 µM), and AmB (100 to 0.78 µM). The plates were kept at 37 °C for 24 h. MTT (5 mg/mL) was added and incubated for 4 h at 37 °C, after which the plates were centrifuged, the supernatant was discarded, and DMSO was added, leaving the plates under stirring to solubilize the formazan salts. Absorbance was measured at 540 nm using a plate reader (ELx800; Curitiba, PR, Brazil). The mean percentage of viable cells was calculated relative to the untreated control.

For the compound `C[C@@H]1[C@H](O)[C@@H](C)/C=C/C=C/C=C/C=C/C=C/C=C/C=C/[C@H](O[C@@H]2O[C@H](C)[C@@H](O)[C@H](N)[C@@H]2O)C[C@@H]2O[C@](O)(C[C@@H](O)C[C@@H](O)[C@H](O)CC[C@@H](O)C[C@@H](O)CC(=O)O[C@H]1C)C[C@H](O)[C@H]2C(=O)O` [Amphotericin B, reference compound], the midpoint of inhibition in data set [1], the IC50, lay at 1.5 ± 0.23 µM. Further, the “% cells, Early Apoptosis (AV+, PI−)” value in data set [2] (1 × EC50, 24 h) is 4.73 ± 0.97%; in data set [2] (4 × EC50, 24 h), 0.60 ± 0.42%. In addition, the “% cells, Late Apoptosis (AV+, PI+)” value was 57.50 ± 1.72 ^d % in data set [2] (1 × EC50, 24 h); 57.50 ± 1.72% in data set [2] (1 × EC50, 24 h, listed as AmB); 97.87 ± 1.01 ^d % in data set [2] (4 × EC50, 24 h); 97.87 ± 1.01% in data set [2] (4 × EC50, 24 h, listed as AmB). Besides, the “% cells, Necrosis (AV−, PI+)” value is recorded as 11.52 ± 1.89% in data set [2] (1 × EC50, 24 h) and 0.96 ± 0.33 ^d % in data set [2] (4 × EC50, 24 h). The same compound came in with a CC50 at 24 h in data set [3] of 53.9 ± 3.59 µM.

Turning to `O=C(/N=C(/NCc1ccccc1)Nc1ccc(I)cc1)c1ccccc1` [LQOFG-7, (Z)-N-((benzylamine)((4-iodophenyl)amino)methylene)benzamide], the IC50 in data set [1] is 23.6 ± 0.64 µM. The “% cells, Early Apoptosis (AV+, PI−)” value in data set [2] (0.5 × EC50, 24 h) is given as 5.56 ± 0.46 ^a %; in data set [2] (1 × EC50, 24 h) it was 5.84 ± 0.57 ^b %; in data set [2] (2 × EC50, 24 h), 10.02 ± 1.53 ^d %; in data set [2] (4 × EC50, 24 h) it was 8.01 ± 0.14 ^d %. Besides, the “% cells, Late Apoptosis (AV+, PI+)” value in data set [2] (0.5 × EC50, 24 h) was 35.53 ± 3.13 ^c %; in data set [2] (1 × EC50, 24 h), 44.20 ± 1.01 ^d %; in data set [2] (2 × EC50, 24 h) it was 36.70 ± 10.35 ^d %; in data set [2] (4 × EC50, 24 h), 63.27 ± 0.59 ^d %. Further, the “% cells, Necrosis (AV−, PI+)” value was 9.83 ± 1.27% in data set [2] (0.5 × EC50, 24 h); 13.53 ± 0.32% in data set [2] (1 × EC50, 24 h); 5.63 ± 1.24% in data set [2] (2 × EC50, 24 h); 12.27 ± 0.48% in data set [2] (4 × EC50, 24 h). The compound further yielded a CC50 at 24 h in data set [3] of 745.5 ± 3.58 µM.
